Tests used:
[1] = Enzyme inhibition dissociation constant for choline acetyl transferase (ChAcT) was determined
[2] = target: High-affinity choline transporter 1 (Rattus norvegicus) (UniProt Q9JMD7); test: Inhibition of high affinity choline uptake at concentration of 1 uM
[3] = target: High-affinity choline transporter 1 (Rattus norvegicus) (UniProt Q9JMD7); test: Inhibition constant of high-affinity choline uptake

Sequence of High-affinity choline transporter 1 (Rattus norvegicus) (Q9JMD7 whole entry, looked up): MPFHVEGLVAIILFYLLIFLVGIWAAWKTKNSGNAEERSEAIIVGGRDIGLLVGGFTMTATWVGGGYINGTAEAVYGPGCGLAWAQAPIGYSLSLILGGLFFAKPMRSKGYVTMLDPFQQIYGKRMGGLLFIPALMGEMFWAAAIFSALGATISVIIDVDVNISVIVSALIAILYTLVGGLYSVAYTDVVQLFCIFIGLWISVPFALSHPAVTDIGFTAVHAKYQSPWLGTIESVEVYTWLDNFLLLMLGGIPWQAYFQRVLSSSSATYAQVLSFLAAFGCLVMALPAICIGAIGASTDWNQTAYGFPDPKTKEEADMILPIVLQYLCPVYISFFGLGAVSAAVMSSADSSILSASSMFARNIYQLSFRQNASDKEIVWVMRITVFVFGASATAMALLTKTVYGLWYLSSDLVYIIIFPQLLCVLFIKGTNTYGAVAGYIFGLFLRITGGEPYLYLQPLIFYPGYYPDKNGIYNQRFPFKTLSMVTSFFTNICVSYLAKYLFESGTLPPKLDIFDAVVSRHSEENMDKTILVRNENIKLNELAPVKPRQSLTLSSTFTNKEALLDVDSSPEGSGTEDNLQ

## C[N+](C)(C)c1cccc(O)c1O [(2,3-Dihydroxy-phenyl)-trimethyl-ammonium; iodide]
[1]
  Ki: 15000 µM
[2]
  IC50: 83 µM
[3]
  Ki: 60 µM

## C[N+](C)(C)CC(O)c1ccc(O)c(O)c1 (stereo not given) [[2-(3,4-Dihydroxy-phenyl)-2-hydroxy-ethyl]-trimethyl-ammonium; iodide]
[2]
  IC50: 221 µM
[3]
  Ki: 130 µM
